For data set [1], the system named is A. baumannii ATCC 19606. The data set can be described thus: Single-point antibacterial screen.
Data set [2] relates to MRSA ATCC 33591. The data set can be described thus: Single-point antibacterial screen.
The subject of data set [3] is P. mirabilis HM-752. The data set can be described thus: Single-point antibacterial screen.
Data set [4] deals with E. faecalis ATCC 29212. The data set can be described thus: Single-point antibacterial screen.
Data set [5] deals with C. freundii 4747 CFAA. The data set can be described thus: Single-point antibacterial screen.
For data set [6], the system named is S. epidermidis ATCC 12384. Briefly: Single-point antibacterial screen.
Data set [7] concerns P. aeruginosa ATCC 27853. Briefly: Single-point antibacterial screen.
In data set [8] the test system is L. monocytogenes ATCC 19115. The data set can be described thus: Single-point antibacterial screen.
For data set [9], the system named is MRSA A960649 NR-45914. The data set can be described thus: Single-point antibacterial screen.
The test system of data set [10] is S. marcescens ATCC 13880. Briefly: Single-point antibacterial screen.
The subject of data set [11] is E. coli ATCC 25922. The data set can be described thus: Single-point antibacterial screen.
Data set [12] concerns E. cloacae ATCC 13047. The data set can be described thus: Single-point antibacterial screen.
Data set [13] has as its system S. flexneri 2457 NR-517. The data set can be described thus: Single-point antibacterial screen. In kind it is cell-based, Shigella flexneri.
A short description of data set [14]: Hemolysis assay. The format is cell-based, rabbit. As to conditions: rabbit, rabbit erythrocytes (2% w/w).
Data set [15] relates to K. pneumoniae NR-151410. The data set can be described thus: Single-point antibacterial screen.
For data set [16], the system named is E. coli S30 Extract System (prokaryotic translation). Briefly: Cell-free in vitro translation assay, prokaryotic system. The format is biochemical. As to conditions: 1.25 µM–2.4 nM.
In data set [17] the test system is E. coli ATCC 25922. Briefly: MIC by double-dilution method.
Data set [18] has as its system MRSA ATCC 33591. The data set can be described thus: MIC by double-dilution method. To be noted: MRSA 33591.
Data set [19] relates to P. mirabilis HM-752. The data set can be described thus: MIC by double-dilution method.
The test system of data set [20] is S. flexneri 2457 NR-517. The data set can be described thus: MIC by double-dilution method. The format is cell-based, Shigella flexneri.
Data set [21] deals with human cytosolic A-site. As to conditions: F–NEO displacement.
Data set [22] addresses mitochondrial A-site. As to conditions: F–NEO displacement.
Data set [23] has as its system S. epidermidis ATCC 12384. Briefly: MIC by double-dilution method.
The test system of data set [24] is L. monocytogenes ATCC 19115. The data set can be described thus: MIC by double-dilution method.
The test system of data set [25] is human cytosolic A-site (RNA, rRNA) GGCGUCGCUCCUUCGGGAAAAGUCGCC
The data set can be described thus: fluorescent displacement assay. As to conditions: 50 mM Na+; F–NEO displaced (0.1 µM 1:1 complex), 10 mM HEPES, 0.4 mM EDTA, pH 7.

The test system of data set [26] is E. coli A-site (RNA, rRNA) GGCGUCACACCUUCGGGUGAAGUCGCC
Briefly: fluorescent displacement assay. To be noted: 50 mM Na+; F–NEO displaced (0.1 µM 1:1 complex), 10 mM HEPES, 0.4 mM EDTA, pH 7.

Data set [27] concerns S. marcescens ATCC 13880. Briefly: MIC by double-dilution method.
Data set [28] deals with E. cloacae ATCC 13047. The data set can be described thus: MIC by double-dilution method.
Data set [29] deals with rabbit erythrocytes. Briefly: Hemolysis assay. The format is cell-based. As to conditions: 100 µM.
The subject of data set [30] is rabbit reticulocyte lysate (eukaryotic translation). Briefly: Cell-free in vitro translation assay, eukaryotic system. In kind it is biochemical. As to conditions: 4.2 µM to 5 nM.
Data set [31] has as its system C. freundii 4747 CFAA. Briefly: MIC by double-dilution method.
Data set [32] relates to E. coli A-site. As to conditions: concentration at which F–NEO emission is 50% of maximum.
For data set [33], the system named is MRSA A960649 NR-45914. The data set can be described thus: MIC by double-dilution method.
The test system of data set [34] is mitochondrial A-site (RNA, rRNA) GGCGUCACCCCUUCGGGACAAGUCGCC
Briefly: fluorescent displacement assay. To be noted: 50 mM Na+; F–NEO displaced (0.1 µM 1:1 complex), 10 mM HEPES, 0.4 mM EDTA, pH 7.

≈ marks a conversion by molar mass, not a printed value.

By inhibition is commonly meant the share of the control response that was lost under treatment. For `NCc1ccc2c(c1)C(=O)c1ccccc1C2=O` [AMA], the inhibition at 6.3 µM in [1] (Acinetobacter baumannii, ATCC19606, read-out: Inhibition of bacterial growth) was found to be 0%; in [2] (Staphylococcus aureus, ATCC33591|MRSA, read-out: Inhibition of bacterial growth) it was 0%; in data set [3] (Proteus mirabilis, HM752, read-out: Inhibition of bacterial growth), 19%; in [4] (Enterococcus faecalis, ATCC29212, read-out: Inhibition of bacterial growth), 27%; in data set [5] (Citrobacter freundii, 4747CFAA, read-out: Inhibition of bacterial growth), 4%; in data set [6] (Staphylococcus epidermidis, ATCC12384, read-out: Inhibition of bacterial growth), 0%. Besides, the inhibition at 6.3 µM in data set [7] (Pseudomonas aeruginosa, ATCC27853, read-out: Inhibition of bacterial growth) came to 5%; in data set [8] (Listeria monocytogenes, ATCC19115, 48 h, read-out: Inhibition of bacterial growth), 37%; in data set [9] (Staphylococcus aureus, MRSA, read-out: Inhibition of bacterial growth), 0%; in data set [10] (Serratia marcescens, ATCC13880, read-out: Inhibition of bacterial growth), 0%; in data set [11] (Escherichia coli, ATCC25922, read-out: Inhibition of bacterial growth), 2%; in data set [12] (Enterobacter cloacae, ATCC13047, read-out: Inhibition of bacterial growth) it was 0%. For the same compound, the inhibition at 6.3 µM in data set [13] (Shigella flexneri, 2457NR517, read-out: Inhibition of bacterial growth) is 9%; in data set [15] (Klebsiella pneumoniae, NR151410, read-out: Inhibition of bacterial growth) it was 0%. The compound also registered a hemolysis at 1 h, 100 µM in [14] of 10 ± 4.6%. Besides, in [16], the “Inhibition of prokaryotic translation (in words)” value is listed as “did not inhibit in vitro translation”.

What is called MIC is the least concentration at which growth counts as inhibited. The low end stands for greater potency, the high end for weaker potency. The IC50 is the concentration needed to halve the response being measured. Low readings indicate greater potency, high ones weaker potency. For the compound `NC[C@@H]1O[C@H](O[C@H]2[C@@H](O)[C@H](O[C@@H]3[C@@H](O)[C@H](N)C[C@H](N)[C@H]3O[C@H]3O[C@H](CN)[C@@H](O)[C@H](O)[C@H]3N)O[C@@H]2CO)[C@H](N)[C@@H](O)[C@@H]1O` [NEO, neomycin], the “Inhibition of bacterial growth” value turned out to be 91% in data set [1] (A. baumannii, 6.3 µM); 0% in [2] (MRSA 33591, 6.3 µM); 96% in data set [3] (P. mirabilis, 6.3 µM); 39% in data set [4] (E. faecalis, 6.3 µM); 97% in [5] (C. freundii, 6.3 µM); 95% in data set [6] (S. epidermidis, 6.3 µM). In addition, the “Inhibition of bacterial growth” value in [7] (P. aeruginosa, 6.3 µM) is reported as 11%; in data set [8] (L. monocytogenes, 6.3 µM, 48 h incubation), 100%; in data set [9] (MRSA A960649, 6.3 µM) it was 0%; in data set [10] (S. marcescens, 6.3 µM), 100%; in data set [11] (E. coli, 6.3 µM) it was 100%; in [12] (E. cloacae, 6.3 µM), 100%. Further, the “Inhibition of bacterial growth” value is on record as 100% in data set [13] (S. flexneri, 6.3 µM) and 0% in data set [15] (K. pneumoniae, 6.3 µM). Also, the MIC in [17] is 1.56 µM (≈ 0.959 µg/mL); in [18], 400 µM (≈ 246 µg/mL); in data set [19], 6.3 µM (≈ 3.87 µg/mL); in data set [20] it was 6.3 µM (≈ 3.87 µg/mL); in [23] it was 1.6 µM (≈ 0.983 µg/mL); in [24] it was 1.6 µM (≈ 0.983 µg/mL). The MIC is reported as 3.2 µM (≈ 1.97 µg/mL) in data set [27], 3.25 µM (≈ 2 µg/mL) in data set [28], 0.78 µM (≈ 0.479 µg/mL) in data set [31] and 400 µM (≈ 246 µg/mL) in [33]. The half-inhibitory concentration (IC50) was 76.5 ± 13.2 nM in data set [21]; 87.1 ± 8.3 nM in [22]; 76.5 ± 13.2 nM in data set [25]; 87.3 ± 5.9 nM in data set [26]; 87.3 ± 5.9 nM in data set [32]; 87.1 ± 8.3 nM in [34]. Moreover, the “% hemolysis” value in data set [29] was 7.0 ± 0.4%. Moreover, the “Inhibition of eukaryotic translation” value in [30] is “inhibition of translation is not observed”.

Consider Triton X-100, for which, in [29], the “% hemolysis” value is 100.0%.

The values are drawn from paper PMC5971063 (ACS infectious diseases, 2017).
